Measurements as given in patent US6461997B1, “Triazole sulfones having herbicidal activity” (Monsanto Technology LLC, priority 1999, dated 2002).

How the values were obtained:
SORVU (shattercane) = experiment: Pre-emergence herbicidal activity, warm season; type: in vivo, Sorghum vulgare; details: GR80 = lowest tested rate (300, 100, 30, 10 g/ha) with 80% or greater inhibition; approx. 14 days after treating; 30/21° C.
Method: (§1) Tables 5 to 8 summarize results of tests conducted as described below to determine the pre-emergence herbicidal activity, in the form of a GR80 value, of illustrative compounds of this invention. […] Compounds of the invention were typically applied at rates of 300, 100, 30, and 10 g/ha. Where herbicidal activity was evident but 80% inhibition was not achieved at the highest rate tested, an asterisk (*) is shown in the following tables.
(§2) The pre-emergence tests were conducted by the following procedure. Topsoil was sieved to pass through a 1.27 cm screen. Fertilizer was added to the topsoil and the mixture was then sterilized by heating. The topsoil mixture was placed in a pot and compacted to a depth of 1.0 to 1.25 cm from the top of the pot. Seeds of each of several monocotyledonous and dicotyledonous annual plant species were placed on top of the soil. Additional soil was subsequently placed over the seeds to level-fill the pot. A known amount of each test compound dissolved or suspended in an appropriate organic solvent was diluted with a 50:50 mix of acetone and water and applied to the surface of the soil. After treatment the plants were placed in a greenhouse where they received 0.64 cm of overhead irrigation. All subsequent watering consisted of a light overhead mist and/or subirrigation as needed for germination and growth. Tables 5 and 6 below relate to warm season plant species which were placed after pre-emergence treatment in a greenhouse with a 30/21° C. day/night temperature regime. Tables 7 and 8 below relates to cool season plant species placed after pre-emergence treatment in a greenhouse or growth chamber with an 18/13° C. day/night temperature regime.
(§3) Approximately 14 days after planting and treating, the plants were observed and herbicidal efficacy recorded as percent inhibition by comparison with untreated plants.
(§4) The plant species usually regarded as weeds which were utilized in the tests are identified in the tables below according to the following legend, in which “d” indicates a dicotyledonous species and “m” a monocotyledonous species. All monocotyledonous species included in the tests herein are grasses.

STEME (common chickweed) = experiment: Pre-emergence herbicidal activity, cool season; type: in vivo, Stellaria media; details: lowest tested rate with 80% or greater inhibition; rates 300, 100, 30, 10 g/ha; about 14 days
Outline: (§5)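 Seeds sown in sterilised fertilised topsoil received surface-applied compound in 50:50 acetone/water, typically at 300, 100, 30 and 10 g/ha, then greenhouse-grown at 30/21° C (warm-season species) or 18/13° C (cool-season species). Percent inhibition versus untreated plants was scored at about 14 days, giving GR80; an asterisk marks activity short of 80% at the top rate.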

SETVI (green foxtail) = experiment: Pre-emergence herbicidal activity, cool season; type: in vivo, Setaria viridis; details: GR80 = lowest tested rate (300, 100, 30, 10 g/ha) with 80% or greater inhibition; approx. 14 days after treating; 18/13° C.
Outline: as §5

[1] = test system: AGSST (creeping bentgrass); experiment: Pre-emergence herbicidal activity, cool season; type: in vivo, Agrostis stolonifera; details: GR80 = lowest tested rate (300, 100, 30, 10 g/ha) with 80% or greater inhibition; approx. 14 days after treating; 18/13° C.
Outline: as §5

DIGSA (large crabgrass) = experiment: Pre-emergence herbicidal activity, warm season; type: in vivo, Digitaria sanguinalis; details: GR80 = lowest tested rate (300, 100, 30, 10 g/ha) with 80% or greater inhibition; approx. 14 days after treating; 30/21° C.
Outline: (§6)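 Seeds were sown in sterilized, fertilized topsoil, covered, and the soil surface was sprayed with compound in 50:50 acetone/water at 300, 100, 30 and 10 g/ha. Pots were held at 30/21 °C day/night (PANMI, DIGSA) or 18/13 °C (ALOMY, POLCO). GR80 came from percent inhibition versus untreated plants at about 14 days.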

POROL (common purslane) = experiment: Pre-emergence herbicidal activity, warm season; type: in vivo, Portulaca oleracea; details: GR80 = lowest tested rate (300, 100, 30, 10 g/ha) with 80% or greater inhibition; approx. 14 days after treating; 30/21° C.
Outline: as §5

[2] = test system: SORHA (johnsongrass (seedling)); experiment: Pre-emergence herbicidal activity, warm season; type: in vivo, Sorghum halepense; details: GR80 = lowest tested rate (300, 100, 30, 10 g/ha) with 80% or greater inhibition; approx. 14 days after treating; 30/21° C.
Outline: (§7)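 Activity is expressed as the rate giving 80% inhibition, with 300, 100, 30 and 10 g/ha typically tested. An asterisk marks activity short of 80% at the top rate. Warm-season grasses were held at 30/21 °C; cool-season blackgrass and wild buckwheat at 18/13 °C; scoring at about 14 days.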

SOLNI (black nightshade) = experiment: Pre-emergence herbicidal activity, warm season; type: in vivo, Solanum nigrum; details: GR80 = lowest tested rate (300, 100, 30, 10 g/ha) with 80% or greater inhibition; approx. 14 days after treating; 30/21° C.
Outline: as §5

ECHCG (barnyardgrass) = experiment: Pre-emergence herbicidal activity, warm season; type: in vivo, Echinochloa crus-galli; details: GR80 = lowest tested rate (300, 100, 30, 10 g/ha) with 80% or greater inhibition; approx. 14 days after treating; 30/21° C.
Outline: as §7

POLCO (wild buckwheat) = experiment: Pre-emergence herbicidal activity, cool season; type: in vivo, Polygonum convolvulus; details: lowest tested rate with 80% or greater inhibition; rates 300, 100, 30, 10 g/ha; about 14 days
Outline: as §6

[3] = test system: GALAP (catchweed bedstraw); experiment: Pre-emergence herbicidal activity, cool season; type: in vivo, Galium aparine; details: lowest tested rate with 80% or greater inhibition; rates 300, 100, 30, 10 g/ha; about 14 days
Outline: as §5

[4] = test system: VERPE (creeping speedwell); experiment: Pre-emergence herbicidal activity, cool season; type: in vivo, Veronica persicaria; details: lowest tested rate with 80% or greater inhibition; rates 300, 100, 30, 10 g/ha; about 14 days
Outline: as §5

SINAR (wild mustard) = experiment: Pre-emergence herbicidal activity, cool season; type: in vivo, Sinapis arvensis; details: lowest tested rate with 80% or greater inhibition; rates 300, 100, 30, 10 g/ha; about 14 days
Outline: as §5

SETFA (giant foxtail) = experiment: Pre-emergence herbicidal activity, warm season; type: in vivo, Setaria faberi; details: GR80 = lowest tested rate (300, 100, 30, 10 g/ha) with 80% or greater inhibition; approx. 14 days after treating; 30/21° C.
Outline: as §7

[5] = test system: LAMPU (purple deadnettle); experiment: Pre-emergence herbicidal activity, cool season; type: in vivo, Lamium purpureum; details: lowest tested rate with 80% or greater inhibition; rates 300, 100, 30, 10 g/ha; about 14 days
Outline: as §5

[6] = test system: PANMI (wild proso millet); experiment: Pre-emergence herbicidal activity, warm season; type: in vivo, Panicum miliaceum; details: GR80 = lowest tested rate (300, 100, 30, 10 g/ha) with 80% or greater inhibition; approx. 14 days after treating; 30/21° C.
Outline: as §6

LOLMG (annual ryegrass) = experiment: Pre-emergence herbicidal activity, cool season; type: in vivo, Lolium multiflorum; details: GR80 = lowest tested rate (300, 100, 30, 10 g/ha) with 80% or greater inhibition; approx. 14 days after treating; 18/13° C.
Method: as §1, §2, §3, §4

SASKR (russian thistle) = experiment: Pre-emergence herbicidal activity, cool season; type: in vivo, Salsola kali; details: lowest tested rate with 80% or greater inhibition; rates 300, 100, 30, 10 g/ha; about 14 days
Outline: as §5

ALOMY (blackgrass) = experiment: Pre-emergence herbicidal activity, cool season; type: in vivo, Alopecurus myosuroides; details: GR80 = lowest tested rate (300, 100, 30, 10 g/ha) with 80% or greater inhibition; approx. 14 days after treating; 18/13° C.
Outline: as §6

AMARE (redroot pigweed) = experiment: Pre-emergence herbicidal activity, warm season; type: in vivo, Amaranthus retroflexus; details: GR80 = lowest tested rate (300, 100, 30, 10 g/ha) with 80% or greater inhibition; approx. 14 days after treating; 30/21° C.
Outline: as §5

[7] = test system: CHEAL (common lambsquarters); experiment: Pre-emergence herbicidal activity, warm season; type: in vivo, Chenopodium album; details: GR80 = lowest tested rate (300, 100, 30, 10 g/ha) with 80% or greater inhibition; approx. 14 days after treating; 30/21° C.
Outline: as §5

[8] = test system: CIRAR (canada thistle (seedling)); experiment: Pre-emergence herbicidal activity, warm season; type: in vivo, Cirsium arvense; details: GR80 = lowest tested rate (300, 100, 30, 10 g/ha) with 80% or greater inhibition; approx. 14 days after treating; 30/21° C.
Method: as §1, §2, §3, §4

BROTE (downy brome) = experiment: Pre-emergence herbicidal activity, cool season; type: in vivo, Bromus tectorum; details: GR80 = lowest tested rate (300, 100, 30, 10 g/ha) with 80% or greater inhibition; approx. 14 days after treating; 18/13° C.
Method: as §1, §2, §3, §4

[9] = test system: BRAPP (broadleaf signalgrass); experiment: Pre-emergence herbicidal activity, warm season; type: in vivo, Brachiaria platyphylla; details: GR80 = lowest tested rate (300, 100, 30, 10 g/ha) with 80% or greater inhibition; approx. 14 days after treating; 30/21° C.
Outline: as §7

PANDI (fall panicum) = experiment: Pre-emergence herbicidal activity, warm season; type: in vivo, Panicum dichotomiflorum; details: GR80 = lowest tested rate (300, 100, 30, 10 g/ha) with 80% or greater inhibition; approx. 14 days after treating; 30/21° C.
Method: as §1, §2, §3, §4

SMILES	Pre-emergence activity GR80, STEME (STEME (common chickweed))	Pre-emergence activity (GR80) SETVI (SETVI (green foxtail))	Pre-emergence activity (GR80) AGSST [1]	Pre-emergence activity GR80, POLCO (POLCO (wild buckwheat))	Pre-emergence activity GR80, GALAP [3]	Pre-emergence activity GR80, VERPE [4]	Pre-emergence activity GR80, SINAR (SINAR (wild mustard))	Pre-emergence activity (GR80) SETFA (SETFA (giant foxtail))	Pre-emergence activity GR80, LAMPU [5]	Pre-emergence activity (GR80) PANMI [6]	Pre-emergence activity (GR80) LOLMG (LOLMG (annual ryegrass))	Pre-emergence activity GR80, SASKR (SASKR (russian thistle))	Pre-emergence activity (GR80) ALOMY (ALOMY (blackgrass))	Pre-emergence activity (GR80) BROTE (BROTE (downy brome))	further results
CN(C(=O)n1cnc(S(=O)(=O)C(F)F)n1)C1CCCCC1 [Example 32]	300 g/ha	100 g/ha	300 g/ha	[empty]	100 g/ha	300 g/ha	100 g/ha	300 g/ha	[empty]	300 g/ha	300 g/ha	[empty]	300 g/ha	–	Pre-emergence activity (GR80) SORVU (SORVU (shattercane)): 300 g/ha; Pre-emergence activity (GR80) DIGSA (DIGSA (large crabgrass)): 300 g/ha; Pre-emergence activity (GR80) POROL (POROL (common purslane)): 100 g/ha; Pre-emergence activity (GR80) SORHA [2]: 30 g/ha; Pre-emergence activity (GR80) SOLNI (SOLNI (black nightshade)): 300 g/ha; Pre-emergence activity (GR80) ECHCG (ECHCG (barnyardgrass)): 300 g/ha; Pre-emergence activity (GR80) AMARE (AMARE (redroot pigweed)): 300 g/ha; Pre-emergence activity (GR80) CHEAL [7]: 300 g/ha; Pre-emergence activity (GR80) CIRAR [8]: 300 g/ha
CON(C)C(=O)n1cnc(S(=O)(=O)C(F)F)n1 [Example 34]	[empty]	300 g/ha	–	300 g/ha	[empty]	300 g/ha	300 g/ha	–	300 g/ha	–	–	300 g/ha	–	300 g/ha	–
CN(C(=O)n1cnc(S(=O)(=O)C(F)(F)Br)n1)C1CCCCC1 [Example 43]	300 g/ha	300 g/ha	100 g/ha	[empty]	300 g/ha	300 g/ha	[empty]	100 g/ha	300 g/ha	100 g/ha	–	[empty]	300 g/ha	–	Pre-emergence activity (GR80) POROL (POROL (common purslane)): 300 g/ha; Pre-emergence activity (GR80) BRAPP [9]: 300 g/ha; Pre-emergence activity (GR80) PANDI (PANDI (fall panicum)): 100 g/ha; Pre-emergence activity (GR80) CIRAR [8]: 300 g/ha
CCN(CC)C(=S)n1cnc(S(=O)(=O)C(F)(F)Br)n1 [Example 46]	300 g/ha	300 g/ha	300 g/ha	300 g/ha	300 g/ha	100 g/ha	[empty]	300 g/ha	100 g/ha	300 g/ha	–	300 g/ha	–	–	Pre-emergence activity (GR80) SORHA [2]: 300 g/ha; Pre-emergence activity (GR80) PANDI (PANDI (fall panicum)): 300 g/ha
CON(C)C(=O)n1cnc(S(=O)(=O)C(F)(F)C(F)F)n1 [Example 69]	300 g/ha	100 g/ha	–	100 g/ha	100 g/ha	100 g/ha	30 g/ha	–	[empty]	–	300 g/ha	[empty]	300 g/ha	300 g/ha	–
CON(C)C(=O)n1cnc(S(=O)(=O)C(F)(F)C(F)(F)Br)n1 [Example 81]	30 g/ha	–	100 g/ha	[empty]	[empty]	100 g/ha	30 g/ha	–	100 g/ha	–	–	100 g/ha	–	30 g/ha	–
CN(C)C(=O)n1cnc(S(=O)(=O)C(F)(F)Cl)n1 [Example 85]	30 g/ha	300 g/ha	100 g/ha	[empty]	[empty]	100 g/ha	30 g/ha	–	100 g/ha	–	100 g/ha	100 g/ha	–	100 g/ha	–
